We go through one compound from patent US5747511A, “Benzothiophene analogs as antiviral agents” (SRI International, priority 1995, dated 1998).

The structures appear in SMILES notation. Bounds are passed on as bounds.

In one series the test system is cytomegalovirus. Put plainly: in vitro antiviral evaluation, viral cytopathic effect (CPE) by microscopy after 72 hours. It is filed as cell-based. The conditions noted are these: TI column of Table 1 (equals CD50/ED50); 4320 min. The procedure: The compounds prepared in the previous Examples were evaluated in vitro as antiviral agents against cytomegalovirus, as follows.
The herpes virus strain employed was Strain McCrae of type 1 herpes (thymidine kinase positive virus) (HSV-1TK^+). This strain was prepared and titered in MA-104 cells and frozen at -90° C. until use. Also used were strain HF (HSV-1TK^-), strain E194 (HSV-2), NJB strain (MCMV), and strain AD169 (HCMV).
(§1) Continuous passaged MRC-5 cells obtained from the American Type Culture Collection (Bethesda, Md.) were used for testing of herpes-type virus, with growth medium consisting of Minimum Essential Medium (MEM) supplemented with 0.1% NaHCO3 and […] gentamicin.
(§2) To a 96 well microtiter plate containing an established 24 hour monolayer of cells from which the medium has been decanted was added 0.1 mL of varying (one-half log10) concentrations of test compound, which incubated on the cell 15 minutes, after which 0.1 mL of virus in a concentration of 320 cell culture 50% infectious doses (CCID50)/0.1 mL was added. The plate was covered with plastic wrap and incubated at 37° C. The cells were examined microscopically after 72 hours for evidence of cytotoxicity and for viral cytopathic effect (CPE).
In general terms: Cytopathic effects are the visible damage that an infection or toxin causes in cultured cells.

The next series concerns MRC-5 cells. The experiment in a line: evidence of cytotoxicity by microscopy after 72 hours. It counts as cell-based. Further details: unit not given beside the values. The following applies: 37° C., microscopic cytotoxicity. Here is the method: as §1, §2

For the compound `Nc1cc2ccncc2c2sc3ccccc3c12` [Compound 1], the TI in the series with cytomegalovirus is over 100. In addition, the CD50 with MRC-5 cells is given as over 10.
